Source: patent US20220071960A1, “CANCER TREATMENTS” (IMPERIAL COLLEGE INNOVATIONS LIMITED, priority 2018, published 2022)

Experiments:
[1] = system: Shep-ER-N-MYC cell line; test: CellTiter Blue metabolic viability, Shep-ER-N-MYC; assay type: cell-based, human; details: 72 hours, with or without induction of MYCN
From the text: (§1) In the experimental protocols described herein the SKNAS and Shep cell lines were genetically engineered to model differences between high grade neuroblastoma (which are usually marked by MYCN amplifications and with particular poor clinical prognosis) and low grade neuroblastoma. Accordingly, the SKNAS and/or Shep cell lines “with N-MYC induction” described herein will be understood to be cell lines treated with tamoxifen and represent aggressive, high grade type cancer cells. Conversely, the SKNAS and/or Shep cell lines “without N-MYC induction” described herein will be understood to be cell lines not treated with tamoxifen and represent less aggressive forms of cancer cells (Huang et al., Cold Spring Harb. Perspect. Med., 2013, 3(10), 1-22).
(§2) At the respective end points of the experiments 20 μL/well of the CellTiter Blue Assay (Promega, G8081) were added and the cells were incubated at 37° C. for 3 hours. The fluorescence was measured at 570 nm using an EnVision™ plate reader. As a positive control, the highest DMSO concentration was added to the cells (usually 0.4% DMSO); as a negative control, the cells were treated with 10 μg/mL Puromycin and 1 uM Staurosporine (Merck, P7255 and S4400, respectively).
The experiment was performed in a 96 well plate and in technical quadruplicate. On day 0, 1,000 cells/well were seeded in 50 μL media. […]

[2] = system: SKNAS-ER-N-MYC cell line; test: Flow cytometry (cell number, caspase3, cell cycle), SKNAS-ER-N-MYC; assay type: cell-based, human; details: MYCN activated cells; FIG. 19
From the text: (§3) Single-cell suspensions were stained with the following monoclonal antibody: α-Active Caspase3 (BD Biosciences, C92-605, 550821, PE) and c-Myc (Abeam, Y69, ab190560). To analyse DNA content, we stained with FxCycle Violet (ThermoFisher Scientific, F10347). To assess proliferation, we used the Click-iT EdU Alexa Fluor 488 Flow Cytometry Assay Kit (ThermoFisher Scientific, C10420) according to manufacturer's instructions. Zombie NIR (Biolegend, 423105) was used to exclude dead cells. The cells were fixed in a 4% solution of PFA, permeabilised with Cytofix/Cytoperm (BD Bioscience, 554714) and washed in Perm/Wash Buffer (BD Bioscience, 554723). Samples were acquired on a MACSQuant VYB (Miltenyi Biotec) and analysed using the FlowJo software (v10.4, Tree star).
(§4) The experiment was performed in a 24 well plate and in technical duplicate. On day 0, 7,800 cells/well for the Shep and 15,000 cells/well for the SKNAS were seeded in 500 μL media. On day 1, the media was removed and 600 μL of media with 100 nM of Tamoxifen, to induce N-Myc, or ethanol as control. On day 2, the respective concentrations of NMT inhibitor were added. After 6 hours, 24 hours, 48 hours and 72 hours the cells were treated according to the general procedures; however, all the media was collected to not loose apoptotic cells, and Trypsin (ThermoFisher Scientific, 25200056) was used to harvest the cells. […]

[3] = system: SKNAS-ER-N-MYC cell line; test: CellTiter Blue metabolic viability, SKNAS-ER-N-MYC; assay type: cell-based, human; details: 96 hours, with or without induction of MYCN
From the text: as §1, §2
The experiment was performed in a 48 well plate and in technical triplicate. On day 0, 5,500 cells/well were seeded in 200 μL media. […]

[4] = system: P-493-6 cell line; test: CellTiter Blue metabolic viability, P-493-6; assay type: cell-based
From the text: The P-493-6 cell line is a non-transformed B cell line that can be genetically engineered to have either “low” levels of c-Myc, “medium” levels of c-Myc or “high” levels of c-Myc. The terms “low”, “medium” and “high” are descriptors commonly used in the art and will be readily understood to mean: • i) “low” levels of c-Myc-a level of MYC expression which represents non-proliferating normal cells (i.e. a level of MYC expression not sufficient to cause the cycling of the cells); • ii) “medium” levels of c-Myc-a level of MYC expression which represents normal proliferating cells; and • iii) ““high” levels of c-Myc-a level of MYC expression which represents enforced/deregulated expression of c-Myc, typically observed in cancerous cells. At the respective end points of the experiments 20 μL/well of the CellTiter Blue Assay (Promega, G8081) were added and the cells were incubated at 37° C. for 3 hours. The fluorescence was measured at 570 nm using an EnVisionTM plate reader. As a positive control, the highest DMSO concentration was added to the cells (usually 0.4% DMSO); as a negative control, the cells were treated with 10 μg/mL Puromycin and 1 uM Staurosporine (Merck, […] and […], respectively). The experiment was performed in a 96 well plate and in technical quadruplicate. […]

[5] = system: Shep-ER-N-MYC cell line; test: Flow cytometry (cell number, caspase3, cell cycle), Shep-ER-N-MYC; assay type: cell-based, human
From the text: as §3, §4

[6] = target: T1, human NMT1 (HsNMT1) (Homo sapiens, UniProt P30419); test: HsNMT1 fluorescence-based assay (CoA detection by CPM); assay type: biochemical
T1 sequence (P30419 1-496): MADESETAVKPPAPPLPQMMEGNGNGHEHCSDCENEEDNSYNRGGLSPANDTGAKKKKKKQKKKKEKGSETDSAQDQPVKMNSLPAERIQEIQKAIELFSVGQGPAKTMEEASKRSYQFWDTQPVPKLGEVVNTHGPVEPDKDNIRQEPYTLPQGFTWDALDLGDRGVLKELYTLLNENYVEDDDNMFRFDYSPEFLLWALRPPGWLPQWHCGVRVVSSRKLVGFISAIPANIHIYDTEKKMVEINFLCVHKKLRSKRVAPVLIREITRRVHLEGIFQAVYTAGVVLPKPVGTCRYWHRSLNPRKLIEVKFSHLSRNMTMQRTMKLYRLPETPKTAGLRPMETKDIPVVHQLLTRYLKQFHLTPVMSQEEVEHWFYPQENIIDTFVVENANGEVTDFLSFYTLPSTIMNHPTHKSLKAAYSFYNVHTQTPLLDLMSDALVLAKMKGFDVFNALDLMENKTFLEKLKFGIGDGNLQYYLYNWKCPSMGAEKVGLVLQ
Description: The IC50 values for human NMT1 (HsNMT1) of Compounds 5 and 7 were measured using a sensitive fluorescence-based assay based on detection of CoA by 7-diethylamino-3-(4-maleimido-phenyl)-4-methylcoumarin, as described in Goncalves, V., et al., Analytical Biochemistry, 2012, 421, 342-344 and Goncalves, V., et al., J. Med. Chem, 2012, 55, 3578.

[7] = system: MRC5 cells; test: Metabolic activity assay (MTS assay); assay type: cell-based; details: Homo sapiens, MRC5 fibroblast cells, 72 h
Description: Compounds 5 and 7 were also tested for activity in an in vitro metabolic activity assay using the human cell line MRC5. Compounds having activity in inhibiting metabolic activity in the assay are expected to be useful as agents for preventing and/or treating cancer, by virtue of being inhibitors of human NMT1 and/or NMT2.
MRC5 cells (cell type: fibroblast cells) were grown in DMEM media (supplemented with 10% FBS) and were seeded in a 96-well plate, 24 h prior to treatment. Cell suspensions were prepared by adjusting the cell density to the appropriate concentration (as stated in the Table 1 below) and 50 μL of the cell suspension was transferred to wells B-G in columns 2-11 of a 96-well plate. […]
After 72 h, 20 μL MTS reagent (Promega, prepared according to the supplier protocol) was added to each well of the 96-well plate. The plate was incubated at 37° C. for 2 h and the absorbance per well was measured at 490 nm with an EnVision plate reader. The average absorbance value of the negative control (Puromycin-treated cells) was subtracted from each value and the metabolic activity was calculated as a percentage relative to the positive control (DMSO-treated cells). EC50 values were calculated using GraphPad.

Compound	cell death with high versus low levels of MYCN [1]	cell cycling [2]	cell death with high versus low levels of MYCN [3]	effect on cell viability ([4]; 10 nM, 72 hours, Myc high cell lines)	cell death depending on c-MYC level ([4]; 48 hours and 72 hours, c-MYC high, medium, low)	cell cycling ([5]; MYCN activated cells, FIG. 17)	cell cycling ([5]; cell line without activated MYCN)	IC50 [6]	EC50 [7]
Cc1nn(C)c(C)c1CCOc1c(-c2ccc3c(c2)c(CN(C)C)nn3C)ccc(F)c1F [Compound 2, 1-(5-(3,4-difluoro-2-(2-(1,3,5-trimethyl-1H-pyrazol-4-yl)ethoxy)phenyl)-1-methyl-1H-indazol-3-yl)-N,N-dimethylmethanamine]	increased cell death more rapidly at lower concentrations	do not reduce their cycling	increased cell death more rapidly at lower concentrations	measurable effects on cell viability	clear MYC-dependent increase in cell death	do not reduce their cycling	stops cycling at 48 hours		
CNC(=O)c1nn(C)c(C)c1CCOc1cc(Cl)ccc1-c1ccc2ncc(CCN)n2c1 [Compound 7, 4-(2-{2-[3-(2-aminoethyl)imidazo[1,2-a]pyridin-6-yl]-5-chlorophenoxy}ethyl)-N,1,5-trimethyl-1H-pyrazole-3-carboxamide]								0.4 nM	37 nM
Cc1c(CCOc2cc(Cl)ccc2-c2ccc3ncc(CCN)n3c2)c(C(=O)N(C)C)nn1C [Compound 5, 4-(2-{2-[3-(2-aminoethyl)imidazo[1,2-a]pyridin-6-yl]-5-chlorophenoxy}ethyl)-N,N,1,5-tetramethyl-1H-pyrazole-3-carboxamide]								1.5 nM	13 nM
